Here are results for nine compounds from ChEMBL document CHEMBL4610081, “Anti-inflammatory Metabolites from Chaetomium nigricolor” (J Nat Prod, 2020).

Calls of active or inactive are those of the source. No cut-off for these calls is given here.

The assay deals with RAW264.7. The assay can be described thus: Antiinflammatory activity against mouse RAW264.7 cells assessed as inhibition of LPS-induced NO production preincubated for 3 hrs followed by LPS-stimulation and measured after 24 hrs by Griess reagent based assay. It is filed as functional, cell-based. (In general: The Griess reaction detects nitrite, a stable product of nitric oxide.)
Turning to `COc1cc(OC)c2c(c1)cc(O)c1c(=O)cc(C)oc12`, the result was inactive.
Still for that read-out and setting: for `O=C(O)c1ccc(CO)o1` the value was “inactive”.
Same read-out and setting: the entry for `COc1cc(C)c2c(OC)cc(=O)oc2c1-c1c(OC)cc(C)c2c(OC)cc(=O)oc12` is “inactive”; for `COC(=O)CCC(=O)OCc1ccc(C(=O)O)o1` it is “inactive”.
Turning to `O=c1ccoc(Cc2ccccc2)c1`, the result was inactive.
Still for that read-out and setting: for `COC(=O)/C=C/C(=O)O` the value was “inactive”.
In the case of `CC(=O)OCc1ccc(C(=O)O)o1`, the outcome was inactive.
Same read-out and setting: for `NC(=O)c1coc(Cc2ccccc2)cc1=O` the value was “inactive”.
On to `COc1cc(OC)c2c(O)c3c(=O)cc(C)oc3c(-c3c(OC)cc4cc(O)c5c(=O)cc(C)oc5c4c3OC)c2c1` (atropisomer aS) [FONSECINONE A], for which the Activity result was “Dose-dependent effect” and the half-maximal inhibitory concentration (IC50) was found to be 7 µM.

The term IC50 denotes the concentration that inhibits the measured activity by half.
